Test system: Human CD34+ hematopoietic stem cells (HSCs) / erythroid progenitor cell cultures
Experiment: Effect of myo-inositol on erythroid cell growth and enucleation (three-stage culture, maturation phase)
Conditions: third culture medium (maturation phase, 24 well plate) supplemented with an additional 1 g/L myo-inositol vs not supplemented control (basal IMDM 0.0072 g/L), FACS-based cell counting
Method: The effect of myo-inositol on erythroid progenitor cell cultures was examined. Human CD34^+ hematopoietic stem cells (HSCs) were cultured in a three-stage process to generate enucleated erythroid cells. In the first stage, the CD34+ HSCs were expanded in a T-flask in a first culture medium containing IMDM supplemented recombinant human insulin, recombinant human transferrin, recombinant human SCF, recombinant IL-3, recombinant Flt-3 ligand, and recombinant human IL-3. Subsequently, cells were transduced with a lentiviral vector encoding phenylalanine ammonia lyase. After transduction, cells were cultured in a 50 L bioreactor culture vessel containing a second culture medium containing IMDM, supplemented with recombinant human erythropoietin, recombinant human SCF, recombinant human IL3, recombinant human insulin, dexamethasone, and recombinant human transferrin. For the third stage of the process (maturation phase), an aliquot of cells were seeded into 24 well plate containing a third culture medium containing IMDM supplemented with recombinant human EPO, recombinant human SCF, recombinant human insulin, recombinant transferrin, human AB serum, and human plasma. […] Periodic sampling and cell counting was performed during the third stage using a fluorescence-activated cell sorting-based cell counter.

With `O[C@H]1[C@H](O)[C@@H](O)[C@H](O)[C@@H](O)[C@H]1O` [myo-inositol] the “total cell density of erythroid cells” value (FIG. 1) was “significantly increase” and the “enucleated erythroid cell density” value (FIG. 2) was “significantly increase”.

From US20210130780A1, “METHODS OF GENERATING ENUCLEATED ERYTHROID CELLS USING MYO-INOSITOL” (Rubius Therapeutics, Inc., priority 2019, published 2021)
